The record followed here is patent US4721718A, “2-[(imidazo[1,2-a]pyridin-3-ylmethyl)sulfinyl]-1H-benzimidazoles useful in the treatment and prevention of ulcers” (G. D. Searle & Co., priority 1986, dated 1988).

This assay concerns the target T1, (H^+ +K^+)-ATPase (Canis lupus familiaris, UniProt P50996).
T1 construct: from tissue; host or cells: gastric glandular mucosa of mongrel dogs (microsomes from the 15-30% sucrose interface, lyophilized)
The assay is described as follows: Inhibition of (H^+ +K^+)-ATPase from Canine Gastric Mucosa. The settings on record: for IC50: canine gastric mucosa microsomes, 30 min preincubation at 37°, pH 6.0, K^+-stimulated minus basal activity. Type of assay: biochemical, canine (mongrel dogs). As to the method: The antisecretory activity of the compounds of this invention illustrated in the Examples was tested by the following method.
Inhibition of ([…] +K^+)-ATPase from Canine Gastric Mucosa
Mongrel dogs weighing 15 to 25 kilograms were fasted for twenty-four hours, with water provided ad libitum. The animals were anesthetized with pentobarbital and the stomachs were removed. Subsequent tissue manipulations and subcellular fractionations were performed at 0° to 4° C. After the stomachs were cut open and rinsed with tap water, the antral and cardiac regions were removed and the remaining tissue was rinsed three times in saline. The glandular mucosa was removed mechanically, chopped finely in a medium containing 10 mM Tris hydrochloride (pH 7.4) and 250 mM sucrose, and homogenized. The homogenate was centrifuged at 20,000×g for twenty minutes and the pellet discarded. The supernatant was then centrifuged at 150,000xg for ninety minutes and the supernatant discarded. The pellet was resuspended in the Tris-HCl/sucrose medium by homogenization. Part (2 ml) of the resultant microsomal suspension was layered onto a step gradient consisting of 9 ml of 15% sucrose above 12 ml of 30% sucrose, each sucrose solution being buffered with 10 mM Tris hydrochloride (pH 7.4) containing 0.01% sodium azide. The microsomes retained at the 15-30% sucrose interface, after centrifugation at 250,000×g for sixty minutes, were used as the source of (H^+ +K^+)-ATPase. Microsomal preparations were lyophilized, a process that assured potassium ion permiability, and stored at -10° until used.
The (H^+ +K^+)-ATPase activity for each test compound was determined, in duplicate, by measuring the release of inorganic phosphate, which was assayed according to the method of J. ChandraRajan and L. Klein., Anal. Biochem., 72. 407-412 (1976). […] At least fifteen minutes later, the optical absorbance at 870 nm (which was proportional to inorganic phosphate concentration up to 100 nmoles per tube, as determined by a standard curve) was obtained. […]

T1 sequence (P50996 whole entry): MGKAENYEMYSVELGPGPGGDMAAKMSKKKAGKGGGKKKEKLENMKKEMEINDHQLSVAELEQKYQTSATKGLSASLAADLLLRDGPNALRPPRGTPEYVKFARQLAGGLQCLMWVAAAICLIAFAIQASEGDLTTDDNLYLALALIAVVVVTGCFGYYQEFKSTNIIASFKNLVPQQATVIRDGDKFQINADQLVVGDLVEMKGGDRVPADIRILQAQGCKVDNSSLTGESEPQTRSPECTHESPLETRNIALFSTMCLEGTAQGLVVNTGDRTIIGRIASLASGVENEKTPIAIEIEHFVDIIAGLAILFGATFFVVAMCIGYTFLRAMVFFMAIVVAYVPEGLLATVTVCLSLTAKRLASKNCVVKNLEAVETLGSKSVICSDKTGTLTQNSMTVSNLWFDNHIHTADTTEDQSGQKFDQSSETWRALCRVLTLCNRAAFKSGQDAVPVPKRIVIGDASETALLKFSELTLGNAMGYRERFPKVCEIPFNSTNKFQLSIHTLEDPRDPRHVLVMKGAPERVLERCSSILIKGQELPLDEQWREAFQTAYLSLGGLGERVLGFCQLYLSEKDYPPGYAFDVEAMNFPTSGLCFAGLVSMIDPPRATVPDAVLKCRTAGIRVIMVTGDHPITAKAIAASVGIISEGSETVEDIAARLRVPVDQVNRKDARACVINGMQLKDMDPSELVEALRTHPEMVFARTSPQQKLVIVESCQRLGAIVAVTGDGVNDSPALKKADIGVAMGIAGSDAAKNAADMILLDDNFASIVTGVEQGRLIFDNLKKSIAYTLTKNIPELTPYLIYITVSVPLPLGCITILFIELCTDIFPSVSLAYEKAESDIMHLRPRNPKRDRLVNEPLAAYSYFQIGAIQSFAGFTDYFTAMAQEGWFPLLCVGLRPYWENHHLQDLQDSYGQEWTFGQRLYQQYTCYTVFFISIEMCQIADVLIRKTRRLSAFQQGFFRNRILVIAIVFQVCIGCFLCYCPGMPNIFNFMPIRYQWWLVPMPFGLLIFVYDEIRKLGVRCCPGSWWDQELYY
T1 sequence (P33704 whole entry partner): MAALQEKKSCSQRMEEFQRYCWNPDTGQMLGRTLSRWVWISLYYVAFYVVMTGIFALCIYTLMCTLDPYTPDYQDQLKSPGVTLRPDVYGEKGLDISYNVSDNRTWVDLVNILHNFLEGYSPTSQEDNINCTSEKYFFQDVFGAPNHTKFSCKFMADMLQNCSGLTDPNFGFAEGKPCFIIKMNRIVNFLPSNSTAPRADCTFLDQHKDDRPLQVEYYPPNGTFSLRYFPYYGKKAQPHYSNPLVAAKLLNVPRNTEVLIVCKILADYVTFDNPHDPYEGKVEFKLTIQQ

For orientation: IC50 means the concentration at which inhibition is half-maximal. Turning to `[O-][S+](Cc1cn2ccccc2n1)c1nc2ccccc2[nH]1` (stereo not drawn) [Example 4, 2-[(imidazo[1,2-a]pyridin-2-ylmethyl)sulfinyl]-1H-benzimidazole], the concentration for half-maximal inhibition (IC50) is greater than 100 µM. For the same molecule, the “inhibition of (H^+ +K^+)-ATPase activity (in words)” value (as shown in Table I) is given as “not inhibiting (H^+ +K^+)-ATPase activity”.
`[O-][S+](Cc1cnc2ccccn12)c1nc2ccccc2[nH]1` (stereo not drawn) [Example 2, 2-[(imidazo[1,2-a]pyridin-3-ylmethyl)sulfinyl]-1H-benzimidazole 1/4 hydrate]: the half-maximal inhibitory concentration (IC50) is 3.88 µM.
